Patent publication US20230204572A1, “Engineered Biosensors in an Encapsulated and Deployable System (EBEADS) for Environmental Chemical Detection” (priority 2021, published 2023)

How the values were obtained:
[1] = tested on: mutant HbpR protein P4-A-8; conditions: 50 μM PCB-3 vs 50 μM 2-HBP
Description: (§1) To generate biosensor systems that detect additional analytes, HbpR mutants were generated using a HbpR codon optimized library sequence (SEQ ID NO: 4) and a plasmid containing the same (SEQ ID NO: 8) and selection against different analytes.

[2] = tested on: mutant HbpR protein P6-A-8; conditions: 50 μM PCB-1 vs 50 μM 2-PP
Description: as §1

[3] = tested on: mutant HbpR protein P6-B-9; conditions: 50 μM PCB-1 vs 50 μM 2-PP
Description: as §1

[4] = tested on: mutant HbpR protein P6-F-8; conditions: 50 μM PCB-1 vs 50 μM 2-PP
Description: as §1

[5] = tested on: HbpR; experiment: β-galactosidase (lacZ) reporter activity of sensing strain pBL_IMP_11 without amplification circuit in liquid culture; assay type: cell-based, Pseudomonas azelaica
Experimental: Cultures were grown overnight to saturation and then diluted to an OD600 of 0.2. Cultures were incubated at 30° C. with shaking until an OD600 of 0.7-1 before inducing cultures with 2-phenylphenol dissolved in 100% ethanol. Cultures were incubate for 3 hours or 1 mL samples were taken every hour. For experiments where 2-PP was removed after incubating for 3 hours, cultures were divided in two tubes and centrifuged. One half of the cultures were washed with 1×PBS to remove 2-phenylphenol and resuspended in fresh medium with antibiotics and without 2-phenylphenol. The other half was resuspended in their original medium without washing. Aliquots were taken every hour. […] Statistical significance of results was determined using a Student's two-tailed t-test. The limit of detection (LOD) was calculated using GraphPad Prism software and is defined as the blank plus three times the standard deviation of the blank.
In the bacterial sensor cells when exposed to 2-PP, the HbpR promoter is activated by 2-PP and HbpR protein is expressed from the transfected plasmids. […] The Limit of Detection (LOD) was calculated to be 0.863 μM for this sensor strain (FIG. 1i). […]
In order to test the response of the reporter over time, the sensor strains were treated with various amounts of 2-PP and reporter activity was measured every hour for five hours. […]

[6] = tested on: HbpR; experiment: AmilCP visual reporter of sensing strains on agar plates and in liquid culture; assay type: cell-based, Pseudomonas azelaica
Experimental: Strains containing AmilCP reporters were incubated overnight to saturation at 30° C. with shaking. Three μl of culture were pipetted onto 6 cm LB-agar plates containing 0.2 mM IPTG, 100 μg/mL carbenicillin, 50 μg/mL kanamycin, and 0 μM, 1 μM, or 10 μM of 2-phenylphenol. Images of the plates were taken at time points 0, 6, 12, 24, and 48 hours with a Nikon SMZ25 stereoscope.
After 12-24 hours on agar plates containing 10 μM 2-phenylphenol, the strains with amplification circuit produced enough AmilCP purple reporter to become just barely visible.
While the response time for the AmilCP reporter was slower than the 2 hour response time observed with the β-galactosidase reporter, use of the AmilCP reporter allowed for reporter visualization without additional equipment. When absorbance at 588 nm was used, addition of the amplification circuit in the AmilCP system allowed for detection of 2-PP at concentrations as low as 1 μM (FIG. 4B). The increase in reporter production through genetic amplification made it feasible for the living sensor to maintain a robust, visual reporter output when encapsulated.

[7] = tested on: HbpR; experiment: Sensor induction in hydrogel microbeads (eBEADS, amplification circuit strain, AmilCP); assay type: cell-based, Pseudomonas azelaica
Experimental: The encapsulated sensing strain's ability to detect low concentrations of 2-PP and produce a visible output signal were evaluated by time series of microscope images. Briefly, the positive control strain and 2-PP with amplification circuit strain were encapsulated in the PAA formulation as previously described above. The microbeads were placed on LB agar plates containing 0.2 mM IPTG, 100 μg/mL carbenicillin, and 50 μg/mL kanamycin supplemented with 0, 1 or 10 μM 2-phenylphenol and incubated at 30° C. Images of the sensing strain microbeads were taken at time points 0, 6, 12, 24, and 48 hours with a Nikon SMZ25 stereoscope.

[8] = tested on: aquatic organisms; conditions: EPA reregistration decision; cited from earlier work
[9] = agar plates, 1 μM and 10 μM 2-phenylphenol

For `Clc1ccc(-c2ccccc2)cc1` [PCB-3, polychlorinated biphenyl-3], the “lacZ reporter expression, mutant P4-A-8” value [1] was “selective lacZ reporter expression”.
With `Clc1ccccc1-c1ccccc1` [PCB-1, polychlorinated biphenyl-1] the “lacZ reporter expression, mutant P6-A-8” value [2] was “selective lacZ reporter expression”, the “lacZ reporter expression, mutant P6-B-9” value [3] was “selective lacZ reporter expression” and the “lacZ reporter expression, mutant P6-F-8” value [4] was “selective lacZ reporter expression”.
For `Oc1ccccc1-c1ccccc1` [2-PP, 2-phenylphenol], the “Limit of Detection (LOD)” value ([5]; lacZ reporter, no amplification, three hours, blank plus three SD) was 0.863 µM, the “response time of β-galactosidase reporter” value ([5]; β-galactosidase reporter) was 2 h and the “lowest 2-PP concentration detected with AmilCP” value ([6]; absorbance at 588 nm, with amplification circuit, 24 hours) was no less than 1 µM. For the same molecule, the “AmilCP colour after 48 hours, with amplification circuit” value [6, 9] was “vibrant purple color”, the “AmilCP colour after 48 hours, without amplification circuit” value [6, 9] was “faintly visible” and the “time until AmilCP purple reporter just barely visible” value ([6]; agar plates, 10 μM 2-phenylphenol, with amplification circuit) was 12 to 24 h. The “time to purple color response of encapsulated strain” value ([7]; 10 μM 2-PP, 30° C.) was no more than 24 h, the “response of eBEADS at less than 10 μM” value ([7]; after 48 hours, less than 10 μM 2PP) was “no response” and the “LC50 for some aquatic organisms” value [8] was no less than 0.32 µg/mL.
